Test results reported in PubChem BioAssay (NCI).
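96-well plates; 48 h exposure; 5 concentrations. Endpoints by linear interpolation between flanking doses. Not reached: highest tested concentration assigned. Definition used: TGI = concentration required for complete inhibition of growth.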 Where a SMILES comes first, the peptide text is derived from it. [ ]: non-standard residue; d: D form. The star is where a group is joined. ξ: configuration not given here. dThr(3ξ) = CC(O)[C@@H](N)C(=O)O; dNMeL = CN[C@H](CC(C)C)C(=O)O; OBn = c1ccc(CO*)cc1; ξLac = CC(O)C(=O)O

Tests used:
Assay in all cases: growth of human tumour cells (NCI), 48 h
IGROV1 ovarian = tested on: IGROV1 ovarian
SF-295 CNS = tested on: SF-295 CNS
A549 NSCLC = tested on: A549 NSCLC
MDA-MB-231 breast = tested on: MDA-MB-231 breast
SW-620 colon = tested on: SW-620 colon
HL-60(TB) leukemia = tested on: HL-60(TB) leukemia
MOLT-4 leukemia = tested on: MOLT-4 leukemia
U251 CNS = tested on: U251 CNS
A498 renal = tested on: A498 renal
MDA-MB-435 = tested on: MDA-MB-435
NCI-H226 lung = tested on: NCI-H226 lung
T-47D breast = tested on: T-47D breast
LOX IMVI melanoma = tested on: LOX IMVI melanoma
HOP-62 NSCLC = tested on: HOP-62 NSCLC
RXF 393 renal = tested on: RXF 393 renal
OVCAR-8 ovarian = tested on: OVCAR-8 ovarian
SR leukemia = tested on: SR leukemia
HS 578T breast = tested on: HS 578T breast
NCI-H23 lung = tested on: NCI-H23 lung
MDA-N = tested on: MDA-N

SMILES | TGI (IGROV1 ovarian) [µM] | TGI (SF-295 CNS) [µM] | TGI (A549 NSCLC) [µM] | TGI (MDA-MB-231 breast) [µM] | TGI (SW-620 colon) [µM] | TGI (HL-60(TB) leukemia) [µM] | TGI (MOLT-4 leukemia) [µM] | TGI (U251 CNS) [µM] | TGI (A498 renal) [µM] | TGI (MDA-MB-435) [µM] | TGI (NCI-H226 lung) [µM] | TGI (T-47D breast) [µM] | TGI (LOX IMVI melanoma) [µM] | TGI (HOP-62 NSCLC) [µM] | TGI (RXF 393 renal) [µM] | TGI (OVCAR-8 ovarian) [µM] | TGI (SR leukemia) [µM] | TGI (HS 578T breast) [µM] | TGI (NCI-H23 lung) [µM] | TGI (MDA-N) [µM]
COC(=O)C1Cc2cccc(C)c2C1 (stereo not given) | > 100 | > 100 | > 100 | > 100 | > 100 | > 100 | > 100 | > 100 | > 100 | > 100 | > 100 | > 100 | > 100 | > 100 | > 100 | > 100 | > 100 | > 100 | > 100 | > 100
Oc1c2cc(Br)cc1CCc1cc(Br)cc(c1O)CC2 | > 100 | 52.5 | > 100 | 41.4 | 70.5 | 51.6 | > 100 | 65.8 | 73.8 | > 100 | 59.5 | > 100 | 31.3 | 65.7 | 70.4 | > 100 | > 100 | 73.4 | > 100 | > 100
Cc1cc2c(c(C=Nc3ccc([N+](=O)[O-])cc3)c1)OC1(C=C2)Oc2ccccc2C(=O)N1C (stereo not given) | 56.6 | 77.1 | > 100 | 45 | 81.1 | > 100 | 35 | 42.8 | 61.6 | > 100 | 46 | 26.9 | 27.1 | 82.9 | 47.5 | 36.9 | 55.3 | > 100 | 35.7 | > 100
CCOC(=O)C(Cc1c2ccccc2cc2ccccc12)(NC(C)=O)C(=O)OCC | > 100 | > 100 | > 100 | > 100 | > 100 | > 100 | > 90.1 | > 100 | > 100 | > 100 | > 100 | > 100 | > 100 | > 100 | > 100 | > 100 | > 100 | > 100 | > 100 | > 100
O=S(=O)(N=S(c1ccc(Cl)cc1)c1ccc(Cl)cc1)c1ccccc1 | > 100 | > 100 | > 100 | > 100 | > 100 | > 100 | > 100 | > 100 | > 100 | > 100 | > 100 | > 100 | > 100 | > 100 | > 100 | > 100 | > 100 | > 100 | > 100 | > 100
CCCCCCCC/C=C\CCCCCCC(F)C(=O)O (stereo not given) | > 12.5 | > 12.5 | > 12.5 | > 12.5 | > 12.5 | > 12.5 | > 12.5 | > 12.5 | > 12.5 | > 12.5 | > 12.5 | > 12.5 | > 12.5 | > 12.5 | > 12.5 | > 12.5 | > 12.5 | > 12.5 | > 12.5 | > 12.5
NC1CC(=O)c2c(Cl)sc(Cl)c21 (stereo not given) | 9.84 | 31.3 | 35.3 | 6.39 | 3.73 | 6.09 | 9.37 | 21.5 | 31.1 | 15.5 | 30.9 | 4.96 | 4.81 | 34 | 2.95 | 20 | 1.99 | 70.4 | 25 | 16.4
CC(=O)OC(C)[C@@H](NC(=O)[C@@H](CC(C)C)N(C)C(=O)[C@@H]1CCCN1C(=O)C(C)O)C(=O)OCc1ccccc1 (stereo not given in full) (H-[ξLac]P[dNMeL][dThr(3ξ)](Ac)-OBn) | > 100 | > 100 | > 100 | > 100 | > 100 | > 100 | > 100 | > 100 | > 100 | > 100 | > 100 | > 100 | > 100 | > 100 | > 100 | > 100 | > 100 | > 100 | > 100 | > 100
O=c1[nH]c(-c2cccc(F)c2)nc2ccccc12 | > 100 | > 72.7 | > 100 | > 65.9 | > 100 | > 100 | > 100 | > 100 | > 73.2 | > 100 | > 100 | > 100 | > 100 | 52.4 | 89.4 | > 93.1 | > 100 | > 78.5 | > 65.8 | > 100
Cc1ccc2c(c1)C(=O)C(Cc1ccccc1C(=O)O)C2 (stereo not given) | > 100 | > 100 | > 100 | > 100 | > 100 | > 100 | > 100 | > 100 | > 100 | > 100 | > 100 | > 100 | > 100 | > 100 | > 100 | > 100 | > 100 | > 100 | > 100 | > 100
O=c1c2cc([N+](=O)[O-])ccc2n(Cc2ccccc2)n1Cc1ccccc1 | > 31.6 | > 31.6 | > 31.6 | 29.1 | > 31.6 | 22.7 | > 31.6 | > 31.6 | > 31.6 | 17.5 | > 31.6 | 24.7 | > 31.6 | > 31.6 | > 31.6 | 22.4 | > 31.6 | > 31.6 | > 31.6 | 21.2
